Reference: publication PMC12371487, “Phenylalkyl Acetophenones and Anacardic Acids from Knema oblongifolia with Synthetic Analogues as Anti-infectives and Antibacterial Agents” (ACS Bio & Med Chem Au, 2025)
In brackets after ≈: the same amount, converted by molar mass.

Assays:
[1] = tested on: Mycobacterium marinum (Mm) in infection of Dictyostelium discoideum; experiment: Dd-Mm infection assay: intracellular Mm growth (luminescence); type: cell-based; settings: for IC50: Mm inside Dd, luminescence AUC over 72 h at 25 °C, 6-concentration curve, top 100 μM, 1:3 steps, IC50 interpolated
Procedure: (§1) Plant extracts, fractions, or isolated compounds were stored at −20 °C and wrapped in aluminum foil if necessary. All manipulations with extracts, fractions, or compounds were performed under a sterile hood. Extracts, fractions, and compounds were resuspended throughout in DMSO to best solubilize extracts with diverse constituents. Extracts, fractions, or compounds were added to the assay plate in a 1:100 dilution. Assay solutions of extracts, fractions, and compounds were prepared in 96-well plates, stored at −20 °C, and thawed before the experiment at room temperature or warmer with or without shaking/vortexing to obtain a clear assay solution. Extracts were tested at 25 μg/mL and purified compounds in a dose–response curve of 6 concentrations with 100 μM being the top concentration and a 1:3 dilution step between each testing concentration. Since fractions were not weighed individually, the injection mass was used to calculate an average mass per fraction and thus a nominal mass concentration. Fractions were tested at a nominal concentration of 10 μg/mL.
(§2) As described in Nitschke et al. and Mottet et al., Dd Ax2(ka) expressing mCherry from the act5 chromosomal locus was infected with Mm M strain expressing the lux operon (luxCDABE) , by spinoculation.
(§3) Briefly, the day before the experiment, Mm was cultivated in 7H9 broth (Becton Dickinson, Difco Middlebrook 7H9) supplemented with 10% OADC (Becton Dickinson) and 0.05% tyloxapol (Sigma-Aldrich) and 50 μg/mL kanamycin at 32 °C overnight with continuous shaking. Additionally, the day before the experiment, 10^7 amoebae were plated in HL5-C in a 10 cm Petri dish (Falcon). On the day of the experiment, a volume of the Mm culture corresponding to a multiplicity of infection of 25 with respect to the number of amoebae in the Petri dish was added to the semiconfluent amoebae monolayer. Subsequently, the Petri dishes were centrifuged twice at 500g, as described in Mottet et al. To remove extracellular bacteria, dishes were rinsed with fresh HL5-C, and the infected cell population was resuspended in HL5-C with 5 U/mL penicillin and 5 μg/mL streptomycin (Gibco) to inhibit the extracellular growth of bacteria during the course of the experiment.
(§4) For testing fractions and purified compounds, 20 μL of infected cell suspension was plated into each well of a 384-well plate (Interchim FP-BA8240) to an effective cell number of 1 × 10^4 cells per well. Fractions or compounds including a vehicle control (0.3% DMSO final concentration) and a positive control (rifabutin, 10 μM final concentration) were added using an electronic multipipette (Sartorius). Subsequently, the well plates were sealed with a gas impermeable membrane (H769.1, Carl Roth), briefly centrifuged, and intracellular bacterial growth was monitored using an Agilent BioTek H1 plate reader and an Agilent BioTek BioStack plate stacker by recording luminescence over 72 h at 25 °C with readings taken every hour. Fluorescence was also recorded to monitor amoeba growth.
(§5) For both assays, growth curves were obtained by measuring the luminescence and fluorescence as a proxy for bacterial growth and host growth, respectively, for 72 h with time-points taken every hour. The “normalized residual growth” was computed by calculating the area under the curve (AUC, trapezoid method) and normalizing it to the vehicle control (0.3% DMSO, set at 1) and a baseline curve (set at 0). The baseline curve was calculated by taking the median of the first measurement of all wells in a plate and extrapolating it over the complete time course. The threshold for hit detection was arbitrarily fixed at a cutoff of normalized residual growth ≤0.5. Normalized values were averaged over technical and biological replicates (all experiments on isolated compounds have at least n = 3 and N = 3, whereas the primary extract screening and microfractions testing had values of n = 1 and N = 3). […]

[2] = tested on: Dictyostelium discoideum (Dd) in infection; experiment: Dd-Mm infection assay: host amoeba growth (fluorescence); type: cell-based; settings: infected Dd, fluorescence AUC over 72 h at 25 °C, 6-concentration curve, top 100 μM, 1:3 steps, IC50 interpolated; for IC50: Dictyostelium discoideum
Procedure: as §1, §2, §3, §4, §5

[3] = tested on: Mycobacterium marinum (Mm) in broth; experiment: Mm growth in broth (antibiotic assay, luminescence); type: cell-based; settings: 72 h; for IC50 on Mm in broth: Mm in 7H9 broth, luminescence at 32 °C, IC50 interpolated; for IC50: Mycobacterium marinum, read-out: IC50 on Mm in broth
Procedure: as §1, with “Extracts, fractions, and compounds were resuspended throughout in DMSO to best solubilize extracts with diverse constituents.” left out
For testing bacteria in broth, the preculture was diluted to a bacterial density of 3.75 × 10^5 bacteria per mL in 7H9 medium. Plating bacteria and compounds or fractions was performed analogously to the infection assay described above. Bacteria growth was monitored with the Agilent BioTek H1 plate reader by recording luminescence at 32 °C.
For both assays, growth curves were obtained by measuring the luminescence and fluorescence as a proxy for bacterial growth and host growth, respectively, for 72 h with time-points taken every hour. The “normalized residual growth” was computed by calculating the area under the curve (AUC, trapezoid method) and normalizing it to the vehicle control (0.3% DMSO, set at 1) and a baseline curve (set at 0). The baseline curve was calculated by taking the median of the first measurement of all wells in a plate and extrapolating it over the complete time course. The threshold for hit detection was arbitrarily fixed at a cutoff of normalized residual growth ≤0.5.
This procedure was also applied to screening extracts with slight modifications. The day before the experiment we preplated 10 μL of HL5-C using a dispenser (Thermo Multidrop), subsequently we preplated 2.2 μL of dissolved extracts from 96-well plates into quadrants 1, 2, and 3 of 384-well plates, whereas quadrant 4 was used for positive and vehicle controls. Preplating of extracts was performed using a liquid handler (Agilent Bravo). In total, 24 extract plates were distributed in triplicate into […] 384-well plates, amounting to 24 assay plates. The prepared plates were sealed and stored at 4 °C overnight. On the day of the experiment, nine 10 cm Petri dishes were infected (as described before) and grouped into three pools. The cell suspension was adjusted to 10^6 cells/mL, and 10 μL was plated into the 24 assay plates, resulting in 10^4 cells per well, as used for conventional infection experiments. Plates were sealed and placed in the plate stacker that supplied the plate reader. The same procedure was used to screen the same extracts on Mm in a broth. For both assays, the first time points and a time point after 72 h were recorded. Subsequently, we normalized the end point, first with the median of the full assay plate at the first time point and second with the end point of the vehicle controls in the respective assay plate.
For IC50 estimation, we used a rudimentary approach of interpolating the sample concentration between the two normalized residual growth values, which were closest to a value of 0.5.

[4] = tested on: Staphylococcus aureus (Sa) Newman strain; experiment: MIC determination in Mueller-Hinton broth (CLSI) on Sa; type: cell-based; settings: Mueller-Hinton broth, CLSI; for MIC: Staphylococcus aureus, NEWMAN, read-out: MIC on Sa
Procedure: MICs were determined in Mueller–Hinton (MH) broth according to CLSI guidelines and were repeated at least on three different occasions.
The Newman strain ofS. aureus and the UCBPP-PA14 strain ofP. aeruginosa were used in this study.

[5] = tested on: Staphylococcus aureus (Sa) Newman strain; settings: literature report; reference number not shown in text; cited from earlier work

For `CC(=O)c1ccc(O)c(Cl)c1O` [Compound 15, 3-Chloro-2,4-dihydroxyacetophenone], the IC50 [1] was 22.2 µM, the IC50 [2] was 22.2 µM and the “IC50 on Mm in broth” value [3] was “not active”. For the same molecule, the “MIC on Sa” value [4] was “not active”.

In the case of `CC(=O)c1cc(Cl)c(O)cc1O` [Compound 16, 5-Chloro-2,4-dihydroxyacetophenone], the IC50 [1] is reported as 22.2 µM, the IC50 [2] is reported as 22.2 µM and the “IC50 on Mm in broth” value [3] is reported as “not active”. For the same molecule, the “MIC on Sa” value [4] was “not active”.

In the case of `CC(=O)c1cc(Cl)c(O)c(Cl)c1O` [Compound 17, 3,5-Dichloro-2,4-dihydroxyacetophenone], the IC50 [1] is reported as 66.7 µM, the IC50 [2] is reported as 66.7 µM and the “IC50 on Mm in broth” value [3] is reported as “not active”. The “MIC on Sa” value [4] was “not active”.

With `CC(=O)c1ccc(O)c(Br)c1O` [Compound 18, 3-Bromo-2,4-dihydroxyacetophenone] the IC50 [1] was 66.7 µM, the IC50 [2] was 66.7 µM and the “IC50 on Mm in broth” value [3] was “not active”. The “MIC on Sa” value [4] was “not active”.

In the case of `CC(=O)c1cc(Br)c(O)cc1O` [Compound 19, 5-Bromo-2,4-dihydroxyacetophenone], the IC50 [1] is reported as 66.7 µM, the IC50 [2] is reported as 22.2 µM and the “IC50 on Mm in broth” value [3] is reported as “not active”. For the same molecule, the “MIC on Sa” value [4] was “not active”.

In the case of `CC(=O)c1cc(Br)c(O)c(Br)c1O` [Compound 20, 3,5-Dibromo-2,4-dihydroxyacetophenone], the IC50 [1] is reported as 66.7 µM, the IC50 [2] is reported as 66.7 µM and the “IC50 on Mm in broth” value [3] is reported as “not active”. For the same molecule, the “MIC on Sa” value [4] was “not active”.

For `O=C(/C=C/c1cccc2ccccc12)c1cc(Cl)c(O)cc1O` [Compound 26, (E)-1-(5-Chloro-2,4-dihydroxyphenyl)-3-(naphthalen-1-yl)prop-2-en-1-one], the IC50 [1] was 0.59 µM, the IC50 [2] was 1.47 µM and the IC50 [3] was 47.6 µM. For the same molecule, the “MIC on Sa” value [4] was “not active”.

In the case of `O=C(/C=C/c1c2ccccc2cc2ccccc12)c1cc(Cl)c(O)cc1O` [Compound 27, (E)-3-(Anthracen-9-yl)-1-(5-chloro-2,4-dihydroxyphenyl)prop-2-en-1-one], the IC50 [1] is reported as 0.59 µM, the “specificity window (IC50 on Dd vs IC50 on intracellular Mm)” value ([1]; ratio of IC50 against Dd growth to IC50 on intracellular Mm) is reported as 25 fold and the IC50 [2] is reported as 15.9 µM. For the same molecule, the “IC50 on Mm in broth” value [3] was “not active”, the “MIC on Sa” value [4] was 2 mg·L–1 and the MIC [4] was 2 µg/mL (≈ 5.34 µM).

In the case of `CC(=O)c1c(O)cc(O)c(Cl)c1CCCCCCc1ccccc1` [Compound 28, 1-(3-Chloro-4,6-dihydroxy-2-(6-phenylhexyl)phenyl)ethan-1-one], the IC50 [1] is reported as 2.47 µM, the IC50 [2] is reported as 0.82 µM and the IC50 [3] is reported as 22.2 µM. It also gave an MIC [4] of 4 µg/mL (≈ 11.5 µM).

For `CC(=O)c1c(O)c(Cl)c(O)c(Cl)c1CCCCCCc1ccccc1` [Compound 29, 1-(3,5-Dichloro-2,4-dihydroxy-6-(6-phenylhexyl)phenyl)ethan-1-one], the IC50 [1] was 2.47 µM, the IC50 [2] was 7.41 µM and the “IC50 on Mm in broth” value [3] was “not active”. For the same molecule, the MIC [4] was 4 to 8 µg/mL (≈ 10.5 to 21 µM).

For `CCCCCCCCCCCCCCCc1cccc(O)c1C(=O)O` [anacardic acid], the IC50 [1] was 22.2 µM, the “IC50 on Dd in infection” value [2] was “not active” and the “IC50 on Mm in broth” value [3] was “not active”. The “MIC on Sa” value [4] was 16 mg·L–1, the “MIC on Sa” value ([4]; listed as Anacardic acid) was 16 μg·mL^–1 and the “active dose against Sa (already reported)” value [5] was 25 μg mL^–1.
